According to patent US12661410B2, “Compounds for targeted degradation of RET” (C4 Therapeutics, Inc., priority 2020, dated 2026):
Where a chain is given by its changes, count along the chain named.

Columns and labels:
RET (658-1114) = target: T1, RET (658-1114) (Homo sapiens, UniProt P07949); assay: HiBiT-Degradation, RET wild-type degradation assay (Nano-Glo HiBiT Lytic), 293T.144 cells; assay type: cell-based; settings: for Emax / DC50: 6.0 hours; for Emax: % remaining protein, read-out: 293T.144 RET (658-1114) 6.0 hours (Emax); for DC50: half-maximal degradation concentration, read-out: 293T.144 RET (658-1114) 6.0 hours (DC50)
T1 construct: 658-1114; expressed in transfected cells; host or cells: 293T.144 (293T cells, generated in-house)
T1 sequence (P07949 658-1114): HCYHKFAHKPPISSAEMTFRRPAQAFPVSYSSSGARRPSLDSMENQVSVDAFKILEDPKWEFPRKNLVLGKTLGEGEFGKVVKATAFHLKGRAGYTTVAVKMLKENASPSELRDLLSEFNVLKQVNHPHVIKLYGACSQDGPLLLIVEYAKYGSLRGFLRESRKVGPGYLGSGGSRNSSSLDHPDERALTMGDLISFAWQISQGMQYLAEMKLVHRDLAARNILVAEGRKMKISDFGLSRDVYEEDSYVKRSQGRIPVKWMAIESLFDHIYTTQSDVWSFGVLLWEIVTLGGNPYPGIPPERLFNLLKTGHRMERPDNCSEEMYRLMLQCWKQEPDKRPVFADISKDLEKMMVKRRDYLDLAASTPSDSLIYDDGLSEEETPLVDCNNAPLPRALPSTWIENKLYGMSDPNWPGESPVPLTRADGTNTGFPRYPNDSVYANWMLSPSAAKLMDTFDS
Method in brief: (§1)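 HEK293T lines expressing HiBiT-tagged RET kinase domain, wild-type (293T.144) or G810R (293T.165), treated 6 h in duplicate, 11-point half-log series from 10 μM top. Lytic HiBiT luminescence read; DC50 and Emax (% protein remaining) from dose-response curves.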

RET(KD: 658-1114 G810R) = target: T2, RET(KD: 658-1114 G810R) (Homo sapiens, UniProt P07949, G810R); assay: HiBiT-Degradation, RET G810R degradation assay (Nano-Glo HiBiT Lytic), 293T.165 cells; assay type: cell-based; settings: for Emax / DC50: 6.0 hours; for Emax: % remaining protein, read-out: 293T.165 RET(KD: 658-1114 G810R) 6.0 hours (Emax); for DC50: half-maximal degradation concentration, read-out: 293T.165 RET(KD: 658-1114 G810R) 6.0 hours (DC50)
T2 construct: 658-1114; expressed in transfected cells; host or cells: 293T.165 (293T cells, generated in-house)
T2 sequence (P07949 658-1114 G810R): T1 sequence (P07949 658-1114) with G153R
Method in brief: as §1

Compound | 293T.144 RET (658-1114) 6.0 hours (IP) [nM] (RET (658-1114)) | Emax (RET (658-1114)) [%] | DC50 (RET (658-1114)) [µM] | 293T.165 RET(KD: 658-1114 G810R) 6.0 hours (IP) [nM] (RET(KD: 658-1114 G810R)) | Emax (RET(KD: 658-1114 G810R)) [%] | DC50 (RET(KD: 658-1114 G810R)) [µM]
N#Cc1cnn2cc(-c3cnn([C@H]4CC[C@H](N5CCC(c6ccc(N[C@H]7CCC(=O)NC7=O)cc6F)CC5)CC4)c3)nc(-c3ccc(N4CCC5(CC4)OCc4cccnc45)nc3)c12 (single isomer, unassigned) [Compound 179] | ++++ (<50 nM = ++++) | < 30 | < 0.05 | ++++ (<50 nM = ++++) | < 30 | < 0.05
CCC1(C(=O)NC2CCCC2)CCN(c2ccc(-c3nc(-c4cnn([C@H]5CC[C@H](N6CCC(c7ccc(N[C@H]8CCC(=O)NC8=O)cc7F)CC6)CC5)c4)cn4ncc(C#N)c34)cn2)CC1 [Compound 141, 1-[5-[3-cyano-6-[1-[4-[4-[4-[[(3S)-2,6-dioxo-3-piperidyl]amino]-2-fluoro-phenyl]-1-piperidyl]cyclohexyl]pyrazol-4-yl]pyrazolo[1,5-a]pyrazin-4-yl]-2-pyridyl]—N-cyclopentyl-4-ethyl-piperidine-4-carboxamide] | ++++ (<50 nM = ++++) | < 30 | < 0.05 | ++++ (<50 nM = ++++) | < 30 | < 0.05
CCC1(C(=O)Nc2ccccc2)CCN(c2ccc(-c3nc(-c4cnn(C5CCN(C(=O)CC6(O)CCN(c7ccc(NC8CCC(=O)NC8=O)cc7F)CC6)CC5)c4)cn4ncc(C#N)c34)cn2)CC1 (stereo not drawn) [Compound 99, 1-[5-[3-cyano-6-[1-[1-[2-[1-[4-[(2,6-dioxo-3-piperidyl)amino]-2-fluoro-phenyl]-4-hydroxy-4-piperidyl]acetyl]-4-piperidyl]pyrazol-4-yl]pyrazolo[1,5-a]pyrazin-4-yl]-2-pyridyl]-4-ethyl-N-phenyl-piperidine-4-carboxamide] | ++++ (<50 nM = ++++) | < 30 | < 0.05 | ++++ (<50 nM = ++++) | < 30 | < 0.05
COc1ccc(CN2C3COCC2CN(c2ccc(-c4nc(-c5cnn([C@H]6CC[C@H](N7CCN(c8cc(F)c(NC9CCC(=O)NC9=O)cc8F)CC7)CC6)c5)cn5ncc(C#N)c45)cn2)C3)cn1 (relative stereo) [Compound 162, 6-[1-[4-[4-[4-[(2,6-dioxo-3-piperidyl)amino]-2,5-difluoro-phenyl]piperazin-1-yl]cyclohexyl]pyrazol-4-yl]-4-[6-[9-[(6-methoxy-3-pyridyl)methyl]-3-oxa-7,9-diazabicyclo[3.3.1]nonan-7-yl]-3-pyridyl]pyrazolo[1,5-a]pyrazine-3-carbonitrile] | ++++ (<50 nM = ++++) | < 30 | < 0.05 | ++++ (<50 nM = ++++) | < 30 | < 0.1
N#Cc1cnn2cc(-c3cnn([C@H]4CC[C@H](N5CCN(c6ccc(N[C@@H]7CCC(=O)NC7=O)cc6F)CC5)CC4)c3)nc(-c3ccc(N4CC5COCC(C4)N5Cc4ccccn4)nc3)c12 (single isomer, unassigned) [Compound 156] | ++++ (<50 nM = ++++) | < 30 | < 0.05 | ++++ (<50 nM = ++++) | < 30 | < 0.05
CCOc1ccc(CN2[C@@H]3COC[C@H]2CN(c2ccc(-c4nc(-c5cnn([C@H]6CC[C@H](N7CCN(c8c(F)cc(NC9CCC(=O)NC9=O)cc8F)CC7)CC6)c5)cn5ncc(C#N)c45)cn2)C3)cn1 (mixture of isomers) [Compound 212, 6-[1-[4-[4-[4-[(2,6-dioxo-3-piperidyl)amino]-2,6-difluoro-phenyl]piperazin-1-yl]cyclohexyl]pyrazol-4-yl]-4-[6-[rac-(1R,5S)-9-[(6-ethoxy-3-pyridyl)methyl]-3-oxa-7,9-diazabicyclo[3.3.1]nonan-7-yl]-3-pyridyl]pyrazolo[1,5-a]pyrazine-3-carbonitrile] | ++++ (<50 nM = ++++) | < 30 | < 0.05 | +++ (<100 nM = +++) | < 30 | < 0.1
